The values below come from US20220257774A1, “AROMATIC AMINE AR AHD BET TARGETING PROTEIN DEGRADATION CHIMERA COMPOUND AND USE” (HINOVA PHARMACEUTICALS INC., priority 2019, published 2022).

Like-named read-outs stand apart in the source and are kept apart here.

For this experiment, the system named is LNCaP/AR cells. Kind of experiment: Inhibition of the proliferation of LNCap/AR cells (CCK-8). It counts as cell-based. Conditions: read-out: LNCap/AR IC50. A digest of the protocol: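 LNCaP/AR cells (1000/well, RPMI1640 + 10% FBS) were treated for 6 days at 37 °C with 9-point 3-fold dilutions from 10 μM final, 0.1% DMSO, in duplicate. Viability was read by CCK-8 absorbance at 450 nm after 1 h, and IC50 came from a dose-response-inhibition fit.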

Where [1] appears, read: LNCaP/AR cells, 6 days culture, CCK-8.

Take `COc1ccc(N(CCCCCOCC(=O)N[C@H](C(=O)N2C[C@H](OC(C)=O)C[C@H]2C(=O)N[C@@H](C)c2ccc(-c3scnc3C)cc2)C(C)(C)C)c2cc(-c3c(C)noc3C)ccc2C)cc1` [Compound 56, (3R,5S)-1-((S)-2-(2-((5-((5-(3,5-dimethylisoxazol-4-yl)-2-methylphenyl)(4-methoxyphenyl)amino)pentyl)oxy)acetamido)-3,3-dimethylbutyryl)-5-((S)-1-(4-(4-methylthiazol-5-yl)phenyl)ethyl)carbamoyl)pyrrolidine-3-yl acetate]: under setting [1], the IC50 lay within 101 to 500 nM.

Regarding `Cc1ccc(-c2c(C)noc2C)cc1N(CCCCCOCC(=O)N[C@H](C(=O)N1C[C@H](O)C[C@H]1C(=O)N[C@@H](C)c1ccc(-c2scnc2C)cc1)C(C)(C)C)c1ccc(C#N)c(Cl)c1` [Compound 58], the IC50 (LNCaP/AR, 144 h) fell in the range of 101 to 500 nM.

On to `Cc1ccc(-c2c(C)noc2C)cc1N(CCCCCN1C(=O)CCC(N2Cc3cc(N)ccc3C2=O)C1=O)c1ccc(C#N)c(Cl)c1` (stereo not shown) [Compound 59, 4-((5-(3-(5-amino-1-oxoisoindolin-2-yl)-2,6-dioxopiperidin-1-yl)pentyl)(5-(3,5-dimethylisoxazol-4-yl)-2-methylphenyl)amino)-2-chlorobenzonitrile], for which the IC50 (LNCaP/AR, 144 h) lay in the range of 501 to 2000 nM.

`CCN(c1ccc(C#N)c(Cl)c1)c1cc(-c2c(C)nn(CCCCCOCC(=O)N[C@H](C(=O)N3C[C@H](OC(C)=O)C[C@H]3C(=O)N[C@@H](C)c3ccc(-c4scnc4C)cc3)C(C)(C)C)c2C)ccc1C` [Compound 81, (3R,5S)-1-((S)-2-(2-((5-(4-(3-((3-chloro-4-cyanophenyl)(ethyl)amino)-4-methylphenyl)-3,5-dimethyl-1H-pyrazol-1-yl)pentyl)oxy)acetamido)-3,3-dimethylbutyryl)-5-((S)-1-(4-methylthiazol-5-yl)phenyl)ethyl)carbamoyl)pyrrolidine-3-yl acetate]: the IC50 (LNCaP/AR, 144 h) lay in the range of 501 to 2000 nM.

On to `CCn1nc(C)c(-c2ccc(C)c(N(CCCCCOCC(=O)N[C@H](C(=O)N3C[C@H](OC(C)=O)C[C@H]3C(=O)N[C@@H](C)c3ccc(-c4scnc4C)cc3)C(C)(C)C)c3ccc(C#N)c(Cl)c3)c2)c1C` [Compound 82, (3R,5S)-1-((S)-2-(2-((5-((3-chloro-4-cyanophenyl)(5-(1-ethyl-3,5-dimethyl-1H-pyrazol-4-yl)-2-methylphenyl)amino)pentyl)oxy)acetamido)-3,3-dimethylbutyryl)-5-((S)-1-(4-methylthiazol-5-yl)phenyl)ethyl)carbamoyl)pyrrolidine-3-yl acetate], for which the IC50 under setting [1] is 101 to 500 nM.

Regarding `Cc1ccc(-c2c(C)noc2C)cc1N(CCCCCOCC(=O)N[C@H](C(=O)N1C[C@H](O)C[C@H]1C(=O)N[C@@H](C)c1ccc(-c2scnc2C)cc1)C(C)(C)C)c1ccc(-n2ccnc2)cc1` [Compound 83, (2S,4R)-1-((S)-2-(2-((5-((4-(1H-imidazol-1-yl)phenyl)(5-(3,5-dimethylisoxazol-4-yl)-2-methylphenyl)amino)pentyl)oxy)acetylamino)-3,3-dimethylbutyryl)-4-hydroxy-N—((S)-1-(4-(4-methylthiazol-5-yl)phenyl)ethyl)-pyrrolidinyl-2-formamide], the IC50 under setting [1] was < 100 nM.

As for `CC(=O)O[C@@H]1C[C@@H](C(=O)N[C@@H](C)c2ccc(-c3scnc3C)cc2)N(C(=O)[C@@H](NC(=O)COCCCCCN(c2ccc(-n3ccnc3)cc2)c2cc(-c3c(C)noc3C)ccc2C)C(C)(C)C)C1` [Compound 84, (3R,5S)-1-((S)-2-(2-((S-((4-(1H-imidazol-1-yl)phenyl)(5-(3,5-dimethylisoxazol-4-yl)-2-methylphenyl)amino)pentyl)oxy)acetylamino)-3,3-dimethylbutyryl)-5-(((S)-1-(4-(4-methylthiazol-5-yl)phenyl)ethyl)aminoformyl)pyrrolidinyl-3-yl acetate], where the note is “144 h, LNCaP/AR cells, 6 days culture, CCK-8”, the IC50 was 501 to 2000 nM.
